Where a name gives a salt, the structure may show the parent alone. Activity calls are given as the source filed them.
What was measured:
cells = type: functional, cell-based
HEK293 = experiment: EBV LMP1 TES2 canonical NF-kB signalling blockers – cell-based, HEK293, luciferase, cherry-pick, dose response (AID 588343); type: functional; settings: Homo sapiens
[1] = target: T1, Nuclear receptor subfamily 0 group B member 1 (Homo sapiens, UniProt P51843); type: functional, cell-based;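 note: HEK293T cells transfected with SF-1 and DAX-1 plus StAR promoter luciferase reporter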
T1 sequence (P51843 whole entry): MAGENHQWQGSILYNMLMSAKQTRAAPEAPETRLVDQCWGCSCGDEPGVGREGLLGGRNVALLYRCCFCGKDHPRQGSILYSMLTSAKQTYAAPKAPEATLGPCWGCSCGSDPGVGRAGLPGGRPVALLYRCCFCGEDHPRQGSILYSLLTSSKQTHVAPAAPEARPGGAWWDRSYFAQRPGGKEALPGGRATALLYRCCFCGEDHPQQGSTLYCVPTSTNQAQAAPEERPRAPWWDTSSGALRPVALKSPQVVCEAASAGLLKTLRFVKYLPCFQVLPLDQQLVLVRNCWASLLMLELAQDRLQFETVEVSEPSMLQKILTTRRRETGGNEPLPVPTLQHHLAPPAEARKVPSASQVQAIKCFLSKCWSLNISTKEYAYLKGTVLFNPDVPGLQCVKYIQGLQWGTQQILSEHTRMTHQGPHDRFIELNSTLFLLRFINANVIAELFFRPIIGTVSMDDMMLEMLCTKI

[2] = target: T2, Long-chain-fatty-acid--AMP ligase FadD28 (Mycobacterium tuberculosis, UniProt P9WQ59); experiment: Fluorescence polarization aasay to screen for inhibitors that compete for the binding of FadD28 to a bisubstrate Measured in Biochemical System Using Plate Reader - 2147-01_Inhibitor_Dose_CherryPick_Activity.; type: functional, Mycobacterium tuberculosis H37Rv
T2 sequence (P9WQ59 whole entry): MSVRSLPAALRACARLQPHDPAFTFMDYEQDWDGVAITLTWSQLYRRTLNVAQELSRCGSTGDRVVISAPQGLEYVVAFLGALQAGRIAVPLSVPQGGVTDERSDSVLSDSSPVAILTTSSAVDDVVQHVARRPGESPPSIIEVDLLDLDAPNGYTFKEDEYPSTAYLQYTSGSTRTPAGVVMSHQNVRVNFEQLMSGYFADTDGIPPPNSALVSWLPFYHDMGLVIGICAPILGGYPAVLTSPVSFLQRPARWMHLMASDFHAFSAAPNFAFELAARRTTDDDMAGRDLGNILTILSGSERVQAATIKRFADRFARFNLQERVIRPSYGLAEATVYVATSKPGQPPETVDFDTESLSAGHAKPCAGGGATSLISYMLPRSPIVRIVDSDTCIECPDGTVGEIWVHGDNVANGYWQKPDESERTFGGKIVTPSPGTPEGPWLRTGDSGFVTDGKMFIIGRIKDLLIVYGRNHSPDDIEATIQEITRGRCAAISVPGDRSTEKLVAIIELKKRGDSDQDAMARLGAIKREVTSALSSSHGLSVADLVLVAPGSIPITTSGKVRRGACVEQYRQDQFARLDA

Genome polyprotein = Genome polyprotein (dengue virus type 2, UniProt P29990); experiment: flavivirus cap methylation enzyme inhibition – biochemical, confirmation dose response, primary screen (AID 588689); type: functional
Genome polyprotein, sequence (P29990 2492-3391 limits assumed): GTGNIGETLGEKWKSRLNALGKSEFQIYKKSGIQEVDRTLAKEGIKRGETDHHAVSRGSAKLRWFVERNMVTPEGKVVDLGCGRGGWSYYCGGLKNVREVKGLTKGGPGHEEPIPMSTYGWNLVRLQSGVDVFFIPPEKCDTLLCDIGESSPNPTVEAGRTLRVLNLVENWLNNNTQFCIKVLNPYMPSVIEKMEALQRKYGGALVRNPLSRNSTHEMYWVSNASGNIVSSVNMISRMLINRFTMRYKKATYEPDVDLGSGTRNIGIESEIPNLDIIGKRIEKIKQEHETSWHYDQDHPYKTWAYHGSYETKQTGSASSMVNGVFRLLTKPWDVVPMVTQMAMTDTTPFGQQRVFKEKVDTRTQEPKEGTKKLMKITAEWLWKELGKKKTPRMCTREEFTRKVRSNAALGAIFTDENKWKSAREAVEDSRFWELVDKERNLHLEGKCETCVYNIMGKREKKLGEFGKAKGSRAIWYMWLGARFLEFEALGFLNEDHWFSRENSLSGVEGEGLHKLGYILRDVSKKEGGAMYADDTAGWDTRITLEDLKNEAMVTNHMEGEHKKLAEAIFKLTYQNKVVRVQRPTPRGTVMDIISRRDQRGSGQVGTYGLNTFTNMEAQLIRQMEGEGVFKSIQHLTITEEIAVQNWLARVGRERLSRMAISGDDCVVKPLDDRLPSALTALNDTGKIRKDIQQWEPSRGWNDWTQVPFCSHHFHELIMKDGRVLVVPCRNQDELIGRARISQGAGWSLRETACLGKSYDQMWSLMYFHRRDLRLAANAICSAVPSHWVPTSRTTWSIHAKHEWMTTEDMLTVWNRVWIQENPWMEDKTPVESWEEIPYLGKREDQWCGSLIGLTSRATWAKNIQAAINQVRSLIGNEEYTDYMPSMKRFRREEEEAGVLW

[3] = target: T3, Corticotropin-releasing factor receptor 2/Corticotropin-releasing factor-binding protein (Homo sapiens, UniProt P24387+Q13324); experiment: Dose Response confirmation of uHTS hits for small molecule antagonists of the CRF-binding protein and CRF-R2 receptor complex.; type: functional; settings: read-out: IC50_Mean
T3 sequence (Q13324 whole entry): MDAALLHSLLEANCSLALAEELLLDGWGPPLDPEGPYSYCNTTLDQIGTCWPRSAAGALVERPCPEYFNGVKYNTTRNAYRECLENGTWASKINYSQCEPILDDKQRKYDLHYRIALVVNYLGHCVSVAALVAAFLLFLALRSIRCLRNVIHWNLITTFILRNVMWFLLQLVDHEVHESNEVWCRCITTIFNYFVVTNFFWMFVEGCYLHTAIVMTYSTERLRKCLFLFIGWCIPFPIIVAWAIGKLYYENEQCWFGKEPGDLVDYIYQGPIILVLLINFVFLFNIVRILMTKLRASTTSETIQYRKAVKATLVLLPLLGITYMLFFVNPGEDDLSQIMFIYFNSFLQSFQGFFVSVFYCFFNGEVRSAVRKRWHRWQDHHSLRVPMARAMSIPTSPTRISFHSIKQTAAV
T3 sequence (P24387 whole entry): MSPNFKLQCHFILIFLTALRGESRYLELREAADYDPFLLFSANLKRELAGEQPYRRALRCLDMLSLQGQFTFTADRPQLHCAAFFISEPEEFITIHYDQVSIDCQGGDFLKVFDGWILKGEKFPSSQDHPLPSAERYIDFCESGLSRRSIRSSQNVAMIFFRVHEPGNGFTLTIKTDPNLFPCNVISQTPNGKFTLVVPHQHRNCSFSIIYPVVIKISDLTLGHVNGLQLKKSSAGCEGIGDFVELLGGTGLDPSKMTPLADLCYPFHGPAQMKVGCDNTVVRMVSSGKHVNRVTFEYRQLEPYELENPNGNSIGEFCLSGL

[4] = blockers of CRF-binding protein–CRF-R2 complex – cell-based, uHTS hits, 384-well, dose response (AID 651639); type: functional, Homo sapiens; settings: read-out: IC50_Mean
[5] = target: T3, Corticotropin-releasing factor receptor 2/Corticotropin-releasing factor-binding protein; experiment: activators of CRF receptor 2 with binding protein – uHTS hits, confirmation (AID 602473); type: functional; settings: read-out: EC50_Mean
[6] = activation of miR-122 Renilla sensor silencing – cell-based, Huh7 psiCHECK-miR122, Renilla luciferase, cherry-picked, dose response (AID 651956); type: functional;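 note: huh7 hepatoma cells stably carrying a psiCHECK-2 miR-122 sensor plasmid; renilla luciferase signal reporting endogenous miR-122 activity after 48 h compound exposure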
[7] = target: T4, Sentrin-specific protease 1 (Homo sapiens, UniProt Q9P0U3); experiment: Dose response confirmation of small molecule inhibitors of the catalytic domain of the SUMO protease, SENP1 in a FRET assay.; type: functional; settings: read-out: IC50_Mean
T4 sequence (Q9P0U3 whole entry): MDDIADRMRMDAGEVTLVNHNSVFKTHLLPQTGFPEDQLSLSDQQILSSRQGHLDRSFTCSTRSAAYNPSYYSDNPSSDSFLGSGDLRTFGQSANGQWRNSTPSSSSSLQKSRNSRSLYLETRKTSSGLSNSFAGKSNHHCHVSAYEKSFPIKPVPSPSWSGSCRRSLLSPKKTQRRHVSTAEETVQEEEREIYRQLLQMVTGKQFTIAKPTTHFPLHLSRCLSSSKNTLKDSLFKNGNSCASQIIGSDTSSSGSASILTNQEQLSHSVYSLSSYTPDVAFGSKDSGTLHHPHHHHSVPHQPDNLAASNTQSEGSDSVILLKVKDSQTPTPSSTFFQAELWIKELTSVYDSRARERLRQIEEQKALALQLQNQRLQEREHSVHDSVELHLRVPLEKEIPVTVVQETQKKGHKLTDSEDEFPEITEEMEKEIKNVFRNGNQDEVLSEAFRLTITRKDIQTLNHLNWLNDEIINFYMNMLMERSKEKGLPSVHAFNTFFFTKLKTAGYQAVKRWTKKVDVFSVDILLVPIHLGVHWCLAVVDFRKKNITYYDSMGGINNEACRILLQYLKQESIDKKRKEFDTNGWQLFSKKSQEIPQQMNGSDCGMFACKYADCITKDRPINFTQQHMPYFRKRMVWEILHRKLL

[8] = target: T4, Sentrin-specific protease 1; experiment: SENP1 catalytic domain blockers, concentration series – biochemical, kinetic FRET, dose response (AID 651697); type: functional; settings: read-out: IC50_Mean
[9] = blockers of HIV-1 ZM109 envelope-driven cell-cell fusion – HeLa effector, CEM target cells, luciferase, cherry-pick, dose response (AID 652058); type: functional, cell-based;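 note: luciferase signal from HIV-1 Env mediated cell-cell fusion of effector and target cells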
[10] = viability loss in CEM21 cells – cell-based, CellTiter-Glo luminescence, cherry-picked, cytotoxicity control for viral fusion inhibitor project, dose response (AID 652042); type: functional;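 note: potency for signal decrease meaning cytotoxicity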
[11] = blockers of HIV-1 envelope-mediated cell-cell fusion – cherry-pick, dose response (AID 652057); type: functional, cell-based
[12] = HIV-1 AD8 envelope cell-cell fusion blockers – cherry-pick, dose response (AID 652062); type: functional, cell-based;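 note: luciferase signal from cell-cell fusion driven by HIV-1 clade B AD8 Env; potency is for inhibitors of fusion seen as a drop in luminescence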
[13] = off-target signal loss in HeLa-CEM21 co-culture – HeLa F-luc CTL cells, cherry-picked, counter-screen for HIV-1 Env fusion inhibitor project, dose response (AID 652040); type: functional, cell-based;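 note: potency for signal decrease marking cytotoxic or nonspecific inhibition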
[14] = target: T5, Rac GTPase-activating protein 1 (Homo sapiens, UniProt Q9H0H5); experiment: blockers of MgcRacGAP-driven Rac1 GTP hydrolysis – biochemical, ADP Hunter fluorescence, primary and confirmatory, confirmation (AID 624330); type: functional
T5 sequence (Q9H0H5 whole entry): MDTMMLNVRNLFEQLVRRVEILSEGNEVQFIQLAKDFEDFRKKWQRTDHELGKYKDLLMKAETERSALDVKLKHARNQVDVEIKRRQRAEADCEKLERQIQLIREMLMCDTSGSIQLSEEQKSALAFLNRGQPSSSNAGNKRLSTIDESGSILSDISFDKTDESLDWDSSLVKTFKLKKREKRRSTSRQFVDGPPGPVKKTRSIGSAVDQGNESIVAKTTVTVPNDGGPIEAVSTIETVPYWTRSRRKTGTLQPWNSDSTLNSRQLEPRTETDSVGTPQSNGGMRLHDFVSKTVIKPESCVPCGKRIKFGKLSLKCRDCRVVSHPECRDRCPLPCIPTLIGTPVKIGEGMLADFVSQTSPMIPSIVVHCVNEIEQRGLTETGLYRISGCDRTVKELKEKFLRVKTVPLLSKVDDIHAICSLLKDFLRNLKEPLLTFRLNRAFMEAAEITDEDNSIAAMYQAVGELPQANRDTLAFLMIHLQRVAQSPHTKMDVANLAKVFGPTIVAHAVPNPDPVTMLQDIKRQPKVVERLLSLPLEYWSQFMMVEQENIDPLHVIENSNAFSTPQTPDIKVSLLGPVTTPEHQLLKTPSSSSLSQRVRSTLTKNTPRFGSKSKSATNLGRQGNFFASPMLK

[15] = Luminescence Cell-Based Dose Retest to Confirm Inhibitors of Cancer Stem Cells. [Related pubchem assays (depositor defined):AID2717, AID2721]; type: functional; settings: Homo sapiens
[16] = target: T6, Methionyl-tRNA synthetase, putative (Trypanosoma brucei brucei, UniProt Q38C91); type: functional, Trypanosoma brucei brucei strain 927/4 GUTat10.1
T6 sequence (Q38C91 whole entry): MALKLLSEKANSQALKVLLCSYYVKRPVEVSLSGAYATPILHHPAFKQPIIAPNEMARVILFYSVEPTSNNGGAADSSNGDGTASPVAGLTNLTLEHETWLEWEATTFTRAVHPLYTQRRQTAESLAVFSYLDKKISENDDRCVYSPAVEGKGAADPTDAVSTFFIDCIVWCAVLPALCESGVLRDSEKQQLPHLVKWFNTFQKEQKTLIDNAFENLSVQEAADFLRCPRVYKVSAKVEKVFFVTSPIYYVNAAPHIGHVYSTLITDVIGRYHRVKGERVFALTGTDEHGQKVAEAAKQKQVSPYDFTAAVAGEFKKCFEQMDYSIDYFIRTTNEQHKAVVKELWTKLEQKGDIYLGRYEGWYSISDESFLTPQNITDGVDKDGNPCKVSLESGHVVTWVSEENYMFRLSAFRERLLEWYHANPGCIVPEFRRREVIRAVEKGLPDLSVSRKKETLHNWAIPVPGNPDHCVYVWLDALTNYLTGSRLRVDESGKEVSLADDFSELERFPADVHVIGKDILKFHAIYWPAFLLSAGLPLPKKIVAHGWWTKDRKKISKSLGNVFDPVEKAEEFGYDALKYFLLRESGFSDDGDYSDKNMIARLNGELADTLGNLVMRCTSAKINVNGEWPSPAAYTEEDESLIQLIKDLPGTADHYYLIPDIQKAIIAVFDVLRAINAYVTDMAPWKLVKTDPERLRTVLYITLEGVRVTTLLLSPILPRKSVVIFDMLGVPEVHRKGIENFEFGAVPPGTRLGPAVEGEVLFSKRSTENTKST

[17] = target: T6, Methionyl-tRNA synthetase, putative; type: functional, Trypanosoma brucei brucei strain 927/4 GUTat10.1; remark: listed apart in the source
[18] = viability loss of HMLE_sh_eGFP cells – cell-based, luminescence, counter-screen for HMLE_sh_ECad selective toxicity project, dose response (AID 463074); type: functional, Homo sapiens;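 note: HMLE human mammary epithelial cells expressing control shRNA against eGFP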
[19] = Counterscreen for inhibitors of Trypanosoma brucei methionyl tRNA synthetase (MetRS): Luminescence-based cell-based high throughput dose response assay to identify compounds that are cytotoxic to Jurkat human T lymphocyte cells.; type: functional
[20] = target: Fructose-bisphosphate aldolase (Mycobacterium tuberculosis, UniProt P9WQA3); experiment: Fluorescence-based biochemical high throughput dose response assay for inhibitors of the fructose-bisphosphate aldolase (FBA) of M. tuberculosis.; type: functional
Fructose-bisphosphate aldolase, sequence (P9WQA3 whole entry): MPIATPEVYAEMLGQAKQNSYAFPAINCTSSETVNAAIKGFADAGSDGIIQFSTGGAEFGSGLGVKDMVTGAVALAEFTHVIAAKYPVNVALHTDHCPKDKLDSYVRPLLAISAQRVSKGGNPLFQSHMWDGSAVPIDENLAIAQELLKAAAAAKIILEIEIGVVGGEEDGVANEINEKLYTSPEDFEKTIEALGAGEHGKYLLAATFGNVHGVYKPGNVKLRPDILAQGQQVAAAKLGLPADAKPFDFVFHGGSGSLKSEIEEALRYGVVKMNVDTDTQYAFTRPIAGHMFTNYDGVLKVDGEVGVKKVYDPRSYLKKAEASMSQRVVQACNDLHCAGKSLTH

Mu-type opioid receptor = Mu-type opioid receptor (Homo sapiens, UniProt P35372); type: functional, cell-based;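 note: U2OS cells with beta-arrestin recruitment to OPRM1 by beta-gal complementation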
Mu-type opioid receptor, sequence (P35372 whole entry): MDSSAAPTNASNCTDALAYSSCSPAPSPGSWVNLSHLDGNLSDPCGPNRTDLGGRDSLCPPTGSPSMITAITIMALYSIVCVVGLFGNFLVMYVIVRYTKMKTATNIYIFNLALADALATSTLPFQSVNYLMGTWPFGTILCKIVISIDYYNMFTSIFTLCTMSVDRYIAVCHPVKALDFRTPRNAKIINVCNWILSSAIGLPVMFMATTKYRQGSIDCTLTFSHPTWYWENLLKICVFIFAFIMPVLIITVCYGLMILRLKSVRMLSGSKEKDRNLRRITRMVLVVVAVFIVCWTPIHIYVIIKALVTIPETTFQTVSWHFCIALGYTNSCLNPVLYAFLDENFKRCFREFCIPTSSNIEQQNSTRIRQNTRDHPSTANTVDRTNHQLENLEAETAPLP

Cc1ccc(NC(=O)C(=O)Nc2ccccn2)cc1
IC50 (cells): > 67.6 µM (inactive) | AC50 (HEK293): 2.59 µM (active) | IC50 [1]: > 67.6 µM (inactive)

C=CCOc1ccc(/C=C2\SC(=S)N(NS(=O)(=O)c3ccccc3)C2=O)cc1
AC50 [2]: > 100 µM (inactive) | IC50 (Genome polyprotein): 30.4 µM (active) | IC50 [3]: 3.68 µM (active) | IC50 [4]: 6.69 µM (active) | EC50 [5]: > 53 µM (inactive)

CCCCN(CCCC)C(=O)CN(C)S(=O)(=O)c1ccc2c(c1)n(C)c(=O)c(=O)n2C
AC50 [6]: 1.4 µM (active)

COc1ccccc1NC(=O)CONC(=N)CC(=O)NC1CCCCC1
IC50 [7]: 12.5 µM (active) | IC50 [8]: 14.1 µM (active)

OCC1OC(n2ccc3c(NO)ncnc32)C(O)C1O (stereo not given)
AC50 [9]: 2.44 µM (active) | AC50 [10]: 0.641 µM (active) | AC50 [11]: 2.35 µM (active) | AC50 [12]: 4.53 µM (active) | AC50 [13]: 2.65 µM (active)

CN(C)CCNc1cccc2sc3ccc(O)cc3c(=O)c12
IC50 [7]: 26 µM (inactive) | IC50 [8]: 37.8 µM (inactive)

CCOc1cc(/C=N/NC(=O)c2ccccc2OCc2ccc(F)cc2)ccc1O
IC50 [3]: 4.05 µM (active) | IC50 [14]: 78.5 µM (active) | IC50 [4]: > 20 µM (inactive) | EC50 [5]: > 53 µM (inactive)

O=C(COc1ccc(Cl)cc1Cl)N/N=C/c1ccc[nH]1
AC50 [15]: 1.92 µM (active) | IC50 [16]: 22.4 µM (inactive) | IC50 [17]: 13.2 µM (inactive) | AC50 [18]: 20.7 µM (active) | IC50 [19]: 22.2 µM (inactive)

Cc1c(C)c2cc(Cl)c(OCC(=O)NCCCN3CCCC3=O)cc2oc1=O
IC50 [20]: 3.71 µM (active)

COc1ccc(NC(=O)C2(C)Cc3c(-c4ccc(N(C)C)cc4)ccnc3O2)cc1OC (stereo not given)
IC50 [20]: 0.731 µM (active)

CC(CCc1ccc(O)cc1)NCCc1ccc(O)c(O)c1 (stereo not given) [DOBUTAMINE HYDROCHLORIDE]
EC50 (Mu-type opioid receptor): 92.5 µM (inactive)

Source: ChEMBL document CHEMBL1201862, “PubChem BioAssay data set” (2004)
